Assay results as given in patent publication US6706686B2, “Inhibition of histone deacetylase as a treatment for cardiac hypertrophy” (The Regents of the University of Colorado, priority 2001, dated 2004).
Entries after “also recorded” stand apart in the source; their conditions may differ.

Tests used:
[1] = tested on: acetylated lysine residues / Histone H3 in cardiac myocytes; test: Detection of acetylated lysine residues (Western blot, immunofluorescence); assay type: cell-based, rat; conditions: exposure for 24 hours
Description: (§1) Cell culture. Ventricular myocytes from one-day-old rats were plated at low density in MEM with 5% calf serum, and studied in serum-free MEM. Cultures were treated with PE (#P6126, Sigma-Aldrich Corp., St. Louis, Mo.), IL-1 (#501-RL, R&D Systems, Minneapolis, Minn.), TSA (#GR-309, BIOMOL Research Laboratories, Inc., Plymouth Meeting, Pa.) or their vehicles (ascorbic acid for PE; bovine serum albumin for IL-1; dimethyl sulfoxide for TSA).
Detection of acetylated lysine residues. Total cell extract was subjected to Western blot analysis using antibodies from Cell Signaling Technology (Beverly, Mass.) (acetylated lysine antibody: #9441, acetylated histone H3 antibody at Lysine 9: #9671, acetylated histone H3 antibody at Lysine 23: #9674, histone H3 antibody: #9712). Nuclear localization of acetylated histone H3 was examined by immunostaining using the same antibodies.

[2] = tested on: SERCA, α-/β-MyHC, ANP, BNP, cardiac α-actin mRNA in cardiac myocytes; test: Myocyte-specific mRNA expression by RNase protection assay; assay type: cell-based, rat
Description: FIGS. 1A-C. TSA alters agonist-induced gene repression. Cultured cardiac myocytes were treated with PE (20 μmol/L) or IL-1 (1 ng/mL) for 48 hrs. TSA (30 nmol/L) was added 30 min. prior to treatment with PE or IL-1. Myocyte-specific mRNA expression (SERCA2a (FIG. 1A), αMyHC (FIG. 1B), βMyHC (FIG. 1C) was assayed in 5 μg total RNA by RNase protection assay. Mean data are from 4 cultures, and are presented as % of control after normalization to GAPDH signal.
as §1
Quantification of myocyte hypertrophy and myocyte-specific mRNA expression. Growth of cultured myocytes was quantified by content of radiolabeled protein after continuous incubation with ^14C-phenylalanine. For evaluation of the myocyte gene program, total RNA was extracted from cells with TRIZol (GIBCO, Carlsbad, Calif.) and used in RNase protection assay with probes for SERCA, α-/β-MyHC, ANP, BNP, and cardiac α-actin. All samples also included glyceraldehyde phosphate dehydrogenase (GAPDH) as an internal control for RNA loading.

[3] = tested on: ANF, αSK-actin, αMyHC, βMyHC RNA in cardiomyocytes; test: RNA dot blot of fetal gene program; assay type: cell-based, rat
Description: FIGS. 5A-B. Treatment of cardiomyocytes with HDAC inhibitors blocks the fetal gene program associated with cardiomyocyte hypertrophy. […] The graphs represent three or more independent experiments.
Dot Blot analysis. Total RNA was isolated from cardiomyocytes that were either untreated, treated with phenylephrine, treated with TSA, or co-treated with phenylephrine and TSA. One microgram of RNA was blotted onto Nitrocellulose (Bio-Rad, Hercules, Calif.) and hybridized at 50° C. for 14 hrs with end-labeled oligos. (ANF, 5′-[…]-3, SEQ ID NO 1; αSK actin5′-[…]-3′, SEQ ID NO2; αMyHC,5′[…]-3′, SEQ ID NO 3; βMyHC5′-[…]-3′, SEQ ID NO 4; GAPDH5′-[…]-3′, SEQ ID NO 5). The blots were washed twice in 2×SSC/0.5% SDS solution and exposed to film (Kodak, Rochester, N.Y.) or phosphoimager (Amersham Bioscience, Sunnyvale, Calif.). The intensity of the hybridization of the probes was measured using ImageQuant® (Amersham Bioscience, Sunnyvale, Calif.).

cardiomyocytes = test: Protein synthesis (tritiated leucine, S6 ribosomal protein); assay type: cell-based, rat
Description: FIG. 6. The effects of TSA treatment on the reorganization of the sarcomeres and protein synthesis. […] The graphs on the right show the content of S6 ribosome protein in cardiomyocytes after 24 hours co-treatment with PE and increasing concentrations of TSA or with serum and increasing concentrations of TSA.
Protein synthesis. Cardiomyocytes were incubated with (1.0 μCi/ml; 172 Ci/mmol sp. activity) tritiated-leucine (ICN Biochemicals, Inc., Irvine, Calif.) in treated RPMI media (Invitrogen, Carlsbad, Calif.). After 6 hrs incubation, the cells were washed twice with 1× PBS, then incubated in 10% TCA on ice for 30 min. Afterwards, the cells were washed twice with 5% TCA, once with water, and then lysed in […]. Lysates were measured in one-sixth volume of scintillation fluid by a scintillation counter (Beckman, Fullerton, Calif.).
S6 Ribosomal protocol. After blocking, cells were incubated in 1% BSA/1× PBS containing 50 μg/ml anti-S6 protein (Cell Signaling, […]) for 1 hr. After washing, the cells were incubated with IgG-HRP (Jackson Labs, […]) at a 1:400 dilution. The cells were then washed twice in 1% BSA/1× PBS, in 1× PBS, then blotted dry. Luminol (Pierce, Rockford, Ill.) was added and the chemiluminescence was detected in a Fusion reader (Perkin-Elmer/Packard).

[4] = tested on: rat neonatal cardiomyocytes; test: Gene chip array analysis; assay type: cell-based; conditions: two-or-more-fold difference
Description: FIGS. 7A-B. TSA induces the activation of genes that are involved in cardiomyocyte differentiation. […] (FIG. 7B) Four genes were inactivated by phenylephrine and activated by TSA (results from one phenylephrine chip, two phenylephrine/TSA chips, and one TSA chip.)
Gene chip and analysis. RNA was isolated using Trizol (Invitrogen, Carlsbad, Calif.) from untreated, phenylephrine-treated, TSA-treated, and phenylephine/TSA co-treated rat neonatal cardiomyocytes. The RNAs were prepared and hybridized on U34A chips (Affymetrix, Inc., Santa Clara, Calif.) according to Affymetrix protocols. The intensity of hybridization was detected by and changes in gene expression were determined and analyzed by Micro Array Suite 5.0 (Affymetrix, Inc., Santa Clara, Calif.).

ras transformed cells = conditions: Taunton et al., 1996; cited from earlier work
ANF locus / NRSE = conditions: prior data; cited from earlier work

In the case of `CC(/C=C/C(=O)NO)=C\[C@@H](C)C(=O)c1ccc(N(C)C)cc1` [TSA, Trichostatin A], the “protein acetylation (acetylated lysine residues, Histone H3)” value [1] is reported as “effectively increased acetylated lysine residues”, the “αMyHC (so in the source) expression in presence of IL-1 alone” value ([2]; IL-1 alone) is reported as “increased αMyHC expression” and the “IL-1 suppression of PE induction of αMyHC (so in the source)” value ([2]; PE/IL-1 co-treated cells) is reported as “reversed the IL-1 effect”. For the same molecule, the “basal SERCA2a mRNA expression” value ([2]; TSA 30 nmol/L, 48 hrs) was “increased the basal expression”, the “basal αMyHC mRNA expression” value ([2]; TSA 30 nmol/L, 48 hrs) was “increased the basal expression” and the “reversal of αMyHC repression in IL-1 treated (or co-treated) cells” value ([2]; TSA pre-treatment, IL-1) was “less prominent”. The “PE effect on αMyHC expression” value ([2]; TSA pre-treatment, PE) was “nearly complete reversal of the PE effect”, the “repression of SERCA expression by hypertrophic stimuli” value ([2]; TSA pre-treatment, PE 20 μmol/L or IL-1 1 ng/mL) was “substantial reversal in the repression of SERCA expression” and the “gene expression of cardiac α-actin, ANP, or BNP” value ([2]; any hypertrophic treatment condition) was “did not affect gene expression”. For the same molecule, the “basal expression or PE-induction of αMyHC (so in the source)” value ([2]; basal or PE) was “had no effects on either the basal expression or PE-induction”, the αMyHC expression ([3]; TSA treatment) was “induced the expression of αMyHC; also recorded: stimulated the expression of αMyHC” and the “phenylephrine-induced endogenous ANF RNA expression” value ([3]; phenylephrine 100 μM, TSA 85 nM, sodium butyrate 5 mM, HC-toxin 5 ng/ml) was “prevented the phenylephrine-induced ANF response; also recorded: blocks the accumulation of ANF message”. For the same molecule, the “phenylephrine-induced αSK-actin expression” value ([3]; phenylephrine co-treatment) was “suppression of other genes activated by the hypertrophic stimulant; also recorded: lack of gene activation”, the “phenylephrine-induced βMyHC expression” value ([3]; phenylephrine co-treatment) was “down-regulating the fetal myosin chain isoform; also recorded: prevented the activation of βMyHC” and the “phenylephrine-stimulated protein synthesis, 6 hours” value (cardiomyocytes; 6 hours co-culture with phenylephrine) was “had little effect on the stimulation of protein synthesis; also recorded: does not alter this increase”. For the same molecule, the “protein synthesis induced by PE or serum, 24 hrs” value (cardiomyocytes; 24 hrs co-treatment) was “antagonized the protein synthesis normally induced by PE or serum in a dose-dependent manner”, the “expression of big Tau-microtubule-associated protein, ubiquitin carboxyl-terminal hydrolase, Thy-1 cell-surface glycoprotein, MyHC class I antigen” value ([4]; genes down-regulated by phenylephrine) was “up-regulated by TSA” and the “expression of cytochrome oxidase subunit VIII, mouse T-complex protein, insulin growth factor binding protein-3” value ([4]; genes up-regulated by phenylephrine) was “down-regulated by TSA”. For the same molecule, the acetylation (ras transformed cells) was “induce hyperacetylation”, the “morphology of ras transformed cells” value (ras transformed cells) was “cause reversion of ras transformed cells to normal morphology” and the “ANF expression at low dose” value (ANF locus / NRSE) was “can induce the ANF expression”.
